Measured values published in publication PMC10541198, “Specific quinone reductase 2 inhibitors reduce metabolic burden and reverse Alzheimer’s disease phenotype in mice” (The Journal of Clinical Investigation, 2023).
Values joined by “and” are separate entries in the source; they are usually repeats but may differ in a detail not shown here. Identical values can stand only once.

Assays:
Amyloid β = experiment: IHC of amyloid β in 5xFAD brain sections; format: in vivo, mouse; details: for Amyloid β normalized volume (individual mice): CA1, 5xFAD 1 month; for Figure 9B, IHC signal / Sup. Fig. 6-1B, IHC signal: individual animals; for Amyloid β vs vehicle: cortex, 5xFAD 1 month
Text: (§1) Following the behavioral experiments, we assessed brain pathologies associated with AD present in the 5xFAD mice ([37]). Therefore, 5 days following the last behavioral experiment, and 1 month after the start of YB-537 consumption, mice were sacrificed, and coronal brain sections were used for IHC. Since the CA1 region of the hippocampus is affected during AD pathogenesis ([37]), and this brain region is involved in the behavioral paradigms used here, we acquired images of CA1. This was done with an Olympus IX83 confocal microscope using the same settings, antibodies, and exposures in all mice. Images were analyzed using Imaris (Bitplane; see methods). For each mouse, 3 coronal sections were used per antibody. In each section, the same region of CA1 was acquired, using the same image frame size and resolution, at all possible depths of the section — using a Z-stack of the whole section — to allow measurement of the fluorescent antibody marker volume, which was normalized to the brain volume from which it was taken. First, we measured oxidative stress, as indicated by 4-HNE ([38]) (Abcam, ab48506).
(§2) Perfused and fixed brain slices were blocked with 10% normal donkey serum (DNS) and 0.2% triton (Sigma-Aldrich) in PBS. Antibodies, including 4-HNE (AbCam, ab48506), Iba1 (AbCam, ab5076), AT-8 (Thermo, MN1020), Amyloid β (AbCam, ab201060), diluted in PBS with 10% DNS, were incubated at 4°C overnight. Secondary antibodies including donkey-anti-goat Alexa Fluor 568 (AbCam, ab175704), donkey-anti-mouse Cy 5 (Jackson Immuno Research, 715-175-151), and donkey-anti-rabbit DyLight 488 (AbCam, ab98488) all diluted 1:500 in PBS with 1% BSA, were applied to the slices at RT for 2 hours the next day. Slices were mounted onto glass slides using DAPI containing Vectashield (H-1200). Images were taken using a confocal microscope (Olympus IX83). Three slices were used per mouse per antibody. Tiling images of the dorsal CA1 and cortex (Bregma: –1.58mm to –2.30mm) were taken using ×20 objective, acquiring a Z-stack of the whole section. Analysis of the images was done blind by an experimenter unaware of the experimental conditions or details, using Imaris (Bitplane) software. A surface reconstruction module was used to extract the data as volumes of the used markers (4-HNE, phospho-tau, amyloid β, GFAP, and Iba1). Marker volume and intensity were normalized to the corresponding brain volume. The normalized value was averaged for each triplicate and presented here. […]
(§3) Brains were then briefly removed and placed in chilled, 4% PFA for 48 h, f oll owe d by immersion in 30% sucrose in 0.1 M PBS for a furt her 48 h. Bra i ns wer e t h e n stored at -80°C, until t he y were sliced into 40µm coronal sections usinga Lei ca CM 1950cryostat. Sli ces were then washed x3 in PBS and bl oc ke d for 1 h at RT using 10% normal donkey serum (DNS) and 0.2% triton (Sigma-Aldrich) in PBS. Antibodies, including 4- HNE (1:500, AbCam, ab48506), Iba1 (1:2,000, AbCam, ab5076), GFAP (Abcam, ab53554), phospho- tau (1:1,000, Thermo, MN1020) and amyloid β (1:1,000, AbCam, ab201060) diluted in PBS with 10% DNS were incubated at 4°C overnight. The next day, the slices were washed x3 times in PBS, and secondary antibodies including donkey anti goat A l e x a Fluor 568 (AbCam, ab175704), donkey anti-mouse Cy 5 (Jackson Immuno Research, 715- 175- 151) and donkey anti-rabbit DyLight 488 (AbCam, ab98488) all diluted 1:500 in PBS with 1% BSA, were applied to the slices at RT for 2 h. Following the incubation, the slices were washed x3 times in PBS, mounted onto gl ass slides, were uniformly covered in DAPI containing Vectashield (H-1200) and coverslips were a dde d. […]

p-tau = experiment: IHC of p-tau (AT8) in 5xFAD brain sections; format: in vivo, mouse; details: for p-tau normalized volume (individual mice): CA1, 5xFAD 1 month; for Figure 9C, IHC signal / Sup. Fig. 6-1C, IHC signal: individual animals; for p-Tau vs vehicle: cortex, 5xFAD 1 month
Text: as §1, §2, §3

SMILES: Cc1ccc(-c2cn3cccc(C)c3n2)cc1S(=O)(=O)N1CCNCC1 [YB-537]
- Amyloid β normalized volume (individual mice) (Amyloid β; Females): 0.0438 and 0.0503 and 0.0630 and 0.0517 and 0.0415 and 0.0377 and 0.0224
- Amyloid β normalized volume (individual mice) (Amyloid β; Males): 0.0456 and 0.0411 and 0.0568 and 0.0482 and 0.0215 and 0.0315 and 0.0453 and 0.0211 and 0.0327
- Amyloid β normalized volume (individual mice) (Amyloid β; Males + Females): 0.0438 and 0.0503 and 0.0630 and 0.0315 and 0.0453 and 0.0211 and 0.0327 and 0.0456 and 0.0411 and 0.0568 and 0.0482 and 0.0215 and 0.0517 and 0.0415 and 0.0377 and 0.0224
- Figure 9B, IHC signal (Amyloid β; Cortex): 0.0014 and 0.0009 and 0.0012 and 0.0011 and 0.0040 and 0.0050 and 0.0062 and 0.0018 and 0.0015
- Sup. Fig. 6-1B, IHC signal (Amyloid β; Females): 0.0046 and 0.0222 and 0.0056 and 0.0307 and 0.0209 and 0.0044 and 0.0060
- Figure 9B, IHC signal (Amyloid β; Hippocampus): 0.0022 and 0.0020 and 0.0026 and 0.0016 and 0.0029 and 0.0072 and 0.0052 and 0.0013
- Sup. Fig. 6-1B, IHC signal (Amyloid β; Males): 0.0033 and 0.0053 and 0.0092 and 0.0140 and 0.0194 and 0.0050 and 0.0040 and 0.0079 and 0.0183
- Amyloid β vs vehicle (Amyloid β; females): unchanged
- Amyloid β vs vehicle (Amyloid β; males): insignificantly reduced
- Amyloid β vs vehicle (Amyloid β; total population): not significantly reduced
- p-tau normalized volume (individual mice) (p-tau; Females): 0.0465 and 0.0384 and 0.0492 and 0.0132 and 0.0255 and 0.0111 and 0.0090
- p-tau normalized volume (individual mice) (p-tau; Males): 0.0610 and 0.0859 and 0.0662 and 0.0488 and 0.0445 and 0.0550 and 0.1044 and 0.0487 and 0.0628
- p-tau normalized volume (individual mice) (p-tau; Males + Females): 0.0465 and 0.0384 and 0.0492 and 0.0550 and 0.1044 and 0.0487 and 0.0628 and 0.0610 and 0.0859 and 0.0662 and 0.0488 and 0.0445 and 0.0132 and 0.0255 and 0.0111 and 0.0090
- Figure 9C, IHC signal (p-tau; Cortex): 0.0130 and 0.0160 and 0.0210 and 0.0219 and 0.0108 and 0.0168 and 0.0118 and 0.0284 and 0.0147
- Sup. Fig. 6-1C, IHC signal (p-tau; Females): 0.0087 and 0.0158 and 0.0323 and 0.0264 and 0.0119 and 0.0169 and 0.0098
- Figure 9C, IHC signal (p-tau; Hippocampus): 0.0315 and 0.0219 and 0.0395 and 0.0356 and 0.0234 and 0.0118 and 0.0425 and 0.0378 and 0.0364
- Sup. Fig. 6-1C, IHC signal (p-tau; Males): 0.0177 and 0.0343 and 0.0259 and 0.0422 and 0.0294 and 0.0273 and 0.0409 and 0.0167 and 0.0342
- p-Tau vs vehicle (p-tau; females): unchanged
- p-Tau vs vehicle (p-tau; males): unchanged
- p-Tau vs vehicle (p-tau; total population): unchanged
